# Values quoted from earlier work in US5731007A, “Pharmaceutical composition for skin diseases” (Yungjin Pharmaceutical Co., Ltd., priority 1994, dated 1998).
# “Also recorded” adds a separate entry of the source. Counter-ions that a name gives are not always drawn.
# Test system: gram positive and negative bacteria
# Settings: including strains resistant to antibiotics such as kanamycin
structure (smiles),measurement,value
"CNC[C@@H]1CC[C@@H](N)[C@@H](O[C@H]2[C@H](O)[C@@H](O[C@H]3OC[C@](C)(O)[C@H](NC)[C@H]3O)[C@H](N)C[C@@H]2N)O1 [Micronomicin sulfate, micronomicin sulfate]",antibacterial activity,wide antibacterial spectrum against both gram positive and negative bacteria; also recorded: effective bacteriocidal activity against infections by strains resistant to various antibiotics such as kanamycin
